According to patent US11155557B2, “Pyrazolopyrimidine compounds and methods of use thereof” (Genentech, Inc., priority 2016, dated 2021):

Tests used:
[1] = target: isolated recombinant JAK1 kinase domain (Homo sapiens (Human), UniProt P23458); test: JAK1 enzyme assay (Caliper LabChip, Ki); assay type: biochemical
Procedure: The activity of the isolated recombinant JAK1 and JAK2 kinase domain was measured by monitoring phosphorylation of a peptide derived from JAK3 ([…] fluorescently labeled on the N-terminus with 5-carboxyfluorescein) using the Caliper LabChip R technology (Caliper Life Sciences, Hopkinton, Mass.).

[2] = system: JAK1-dependent STAT6 phosphorylation in BEAS-2B human bronchial epithelial cells; test: JAK1 pathway assay: IL-13 stimulated STAT6 phosphorylation in BEAS-2B cells; assay type: cell-based; conditions: Homo sapiens, BEAS-2B, BEAS-2B cells, IL-13 stimulation; read-out: IL-13 p-STAT6 BEAS-2B IC50
Summary of the method: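 BEAS-2B bronchial epithelial cells plated one day before, run in complete growth medium. Phospho-STAT6 in lysates measured by MesoScale Discovery; EC50 reported.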

[3] = target: isolated recombinant JAK2 kinase domain (Homo sapiens (Human), UniProt O60674); test: JAK2 enzyme assay (Caliper LabChip, Ki); conditions: read-out: JAK2 Ki
Sequence of isolated recombinant JAK2 kinase domain (O60674 849-1124): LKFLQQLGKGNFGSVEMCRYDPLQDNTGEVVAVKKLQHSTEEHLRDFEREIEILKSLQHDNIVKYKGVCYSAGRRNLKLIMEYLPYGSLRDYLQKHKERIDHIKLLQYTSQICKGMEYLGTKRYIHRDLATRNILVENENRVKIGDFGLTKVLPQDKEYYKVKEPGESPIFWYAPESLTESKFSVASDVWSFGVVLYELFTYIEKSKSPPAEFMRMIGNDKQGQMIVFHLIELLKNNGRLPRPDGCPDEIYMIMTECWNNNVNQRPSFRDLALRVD

Sequence of isolated recombinant JAK1 kinase domain (P23458 875-1153): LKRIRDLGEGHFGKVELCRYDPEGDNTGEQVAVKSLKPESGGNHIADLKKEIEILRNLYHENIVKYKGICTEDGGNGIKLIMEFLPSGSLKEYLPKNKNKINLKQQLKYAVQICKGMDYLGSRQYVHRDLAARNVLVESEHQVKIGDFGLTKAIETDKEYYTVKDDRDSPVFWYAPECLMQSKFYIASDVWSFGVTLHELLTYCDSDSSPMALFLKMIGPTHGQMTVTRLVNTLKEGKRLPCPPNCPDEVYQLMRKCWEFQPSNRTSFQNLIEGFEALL

## O=C(Nc1cn(CC(=O)N2CCC(N3CCOCC3)CC2)nc1-c1cc2c(cc1OC(F)F)NCCO2)c1cnn2cccnc12 [Example 47, N-[3-[6-(difluoromethoxy)-3,4-dihydro-2H-1,4-benzoxazin-7-yl]-1-[2-(4-morpholino-1-piperidyl)-2-oxo-ethyl]pyrazol-4-yl]pyrazolo[1,5-a]pyrimidine-3-carboxamide]
[1]
  Ki: 0.31 nM
[2]
  IC50: 106 nM
[3]
  Ki: 0.45 nM

## O=C(Nc1cn(CC(=O)N2CCC(O)CC2)nc1-c1cc2c(cc1OC(F)F)NCCO2)c1cnn2cccnc12 [Example 48, N-[3-[6-(difluoromethoxy)-3,4-dihydro-2H-1,4-benzoxazin-7-yl]-1-[2-(4-hydroxy-1-piperidyl)-2-oxo-ethyl]pyrazol-4-yl]pyrazolo[1,5-a]pyrimidine-3-carboxamide]
[1]
  Ki: 0.3 nM
[2]
  IC50: > 1000 nM
[3]
  Ki: 0.51 nM

## O=C(Nc1cn(CC(=O)N2CC=CCC2)nc1-c1cc2c(cc1OC(F)F)NCCO2)c1cnn2cccnc12 [Example 49, N-[3-[6-(difluoromethoxy)-3,4-dihydro-2H-1,4-benzoxazin-7-yl]-1-[2-(3,6-dihydro-2H-pyridin-1-yl)-2-oxo-ethyl]pyrazol-4-yl]pyrazolo[1,5-a]pyrimidine-3-carboxamide]
[1]
  Ki: 0.23 nM
[2]
  IC50: 19 nM
[3]
  Ki: 0.29 nM

## O=C(Nc1cn(CC(=O)N2CC=CCC2)nc1-c1cc2c(cc1OC(F)F)NCCS2)c1cnn2cccnc12 [Example 50, N-[3-[6-(difluoromethoxy)-3,4-dihydro-2H-1,4-benzothiazin-7-yl]-1-[2-(3,6-dihydro-2H-pyridin-1-yl)-2-oxo-ethyl]pyrazol-4-yl]pyrazolo[1,5-a]pyrimidine-3-carboxamide]
[1]
  Ki: 0.11 nM
[2]
  IC50: 10 nM
[3]
  Ki: 0.1 nM

## O=C(Nc1cn(CC(=O)N2CCCCC2)nc1-c1cc2c(cc1OC(F)F)NCCS2)c1cnn2cccnc12 [Example 51, N-[3-[6-(difluoromethoxy)-3,4-dihydro-2H-1,4-benzothiazin-7-yl]-1-[2-oxo-2-(1-piperidyl)ethyl]pyrazol-4-yl]pyrazolo[1,5-a]pyrimidine-3-carboxamide]
[1]
  Ki: 0.13 nM
[2]
  IC50: 11 nM
[3]
  Ki: 0.1 nM

## O=C(Nc1cn(CC(=O)N2CCC(O)CC2)nc1-c1cc2c(cc1OC(F)F)NCCS2)c1cnn2cccnc12 [Example 52, N-[3-[6-(difluoromethoxy)-3,4-dihydro-2H-1,4-benzothiazin-7-yl]-1-[2-(4-hydroxy-1-piperidyl)-2-oxo-ethyl]pyrazol-4-yl]pyrazolo[1,5-a]pyrimidine-3-carboxamide]
[1]
  Ki: 0.16 nM
[2]
  IC50: 285 nM
[3]
  Ki: 0.14 nM

## CCN1CCN(C(=O)Cn2cc(NC(=O)c3cnn4cccnc34)c(-c3cc4cn[nH]c4cc3OC(F)F)n2)CC1 [Example 53, N-[3-[6-(difluoromethoxy)-1H-indazol-5-yl]-1-[2-(4-ethylpiperazin-1-yl)-2-oxo-ethyl]pyrazol-4-yl]pyrazolo[1,5-a]pyrimidine-3-carboxamide]
[1]
  Ki: 0.25 nM
[2]
  IC50: 88 nM
[3]
  Ki: 0.39 nM

## COc1cc2ccsc2cc1-c1nn(CC(=O)N2CCC(N3CCOCC3)CC2)cc1NC(=O)c1cnn2cccnc12 [Example 54, N-[3-(5-methoxybenzothiophen-6-yl)-1-[2-(4-morpholino-1-piperidyl)-2-oxo-ethyl]pyrazol-4-yl]pyrazolo[1,5-a]pyrimidine-3-carboxamide]
[1]
  Ki: 0.92 nM
[2]
  IC50: 46 nM
[3]
  Ki: 2.1 nM

## N#Cc1cc2cc(OC(F)F)c(-c3nn(CC(=O)N4CCC(N5CCOCC5)CC4)cc3NC(=O)c3cnn4cccnc34)cc2s1 [Example 55, N-[3-[2-cyano-5-(difluoromethoxy)benzothiophen-6-yl]-1-[2-(4-morpholino-1-piperidyl)-2-oxo-ethyl]pyrazol-4-yl]pyrazolo[1,5-a]pyrimidine-3-carboxamide]
[1]
  Ki: 0.41 nM
[2]
  IC50: 20 nM
[3]
  Ki: 0.41 nM
